{
  "source": "patent US20150141439A1",
  "about": "“PHARMACEUTICAL COMPOSITION FOR THE PREVENTION OR TREATMENT OF BRAIN TUMOR OR TEMODAL RESISTANT GLIOBLASTOMA MULTIFORM COMPRISING AZATHIOPRINE AS AN ACTIVE INGREDIENT” (KOREA RESEARCH INSTITUTE OF CHEMICAL TECHNOLOGY, priority 2012, published 2015)",
  "key": {"[1]": {"tested_on": "GBM #5 glioblastoma multiform patient originated cells", "test": "Neurosphere formation inhibition, GBM #5", "assay_type": "cell-based, human", "design": "key: S: strong effect; I: intermediate effect; R: rare effect", "conditions": "GBM #5, type B (classical), Azathioprine 1 μM, duration 21 day", "protocol": "(§1) Particularly, to investigate neurosphere formation, glioblastoma multiform cells were cultured for a certain time and the cells were distributed again in culture vessels, followed by additional culture. Then, the number of newly generated neurospheres was measured. First, the glioblastoma multiform patient originated cells were sub-cultured, which were distributed in a 96-well plate (20, 50, and 200 cells in 50 μl of culture medium/well). […] Then, the compound of formula 1 (azathioprine) and the compound of Comparative Example 1 (Temodal) were added to 50 μl of cell culture medium with the same concentrations as the above once a week, which were then cultured for 7˜23 days. When neurosphere was formed at least 50 μm in the control group not treated with the compound, the number of neurospheres in each well was counted to compare the neurosphere formation before and after the treatment of the compound of formula 1 (azathioprine) and the compound of Comparative Example 1 (Temodal).\n(§2) The glioblastoma multiform cells used in this experiment were classified into 4 types, which are type A, type B, type C, and type D, according to the gene expression pattern. Methylation of MGMT (O6-me-G methyltransferase), the DNA repair protein, was confirmed in each cell line. […]"}, "[2]": {"tested_on": "NCI-H23 Human lung adenocarcinoma", "test": "Secondary cytotoxicity test, NCI-H23", "assay_type": "cell-based", "protocol": "(§3) Particularly, the cell growth inhibition effect was measured by WST-1 cell proliferation assay [http://www.roche-applied-science.com/PROD_INF/MANUALS/CELL_MAN/apoptosis—087—088.pdf]. The compound of formula 1 was loaded in a 384-well cell culture plate. Three types of glioblastoma multiform cell lines [proneural subtype (559T), mesenchymal subtype (592T), and classical subtype (626T)], normal human astrocytes (NHA), a lung cancer cell line (A549), and a glioblastoma multiform cell line (U87MG) were distributed in the plate at the density of 4.5×10^3 cells/well, and the medium was filled up to make 50 μl per well. At this time, the concentration of the solvent DMSO for the compound of formula 1 was no more than 0.2%. After culturing the cells for 72 hours, 5 mg/ml of WST-1 reagent was added by 5 μl per well, followed by reaction for 3˜4 hours. Then OD450 was measured to investigate the effect of the compound of formula 1 on cell proliferation.\n(§4) To investigate the cell growth inhibition effect of the compound of formula 1 of the present invention (azathioprine) in many different cell lines, secondary cytotoxicity test was performed with the cell lines listed in Table 5 by the same manner as described in Example 1."}, "[3]": {"tested_on": "GBM #2 glioblastoma multiform patient originated cells", "test": "Neurosphere formation inhibition, GBM #2", "assay_type": "cell-based, human", "design": "key: S: strong effect; I: intermediate effect; R: rare effect", "conditions": "GBM #2, type A (proneural), Azathioprine 1 μM, duration 15 day", "protocol": "as §1, §2"}, "[4]": {"tested_on": "GBM #9 glioblastoma multiform patient originated cells", "test": "Neurosphere formation inhibition, GBM #9", "assay_type": "cell-based, human", "design": "key: S: strong effect; I: intermediate effect; R: rare effect", "conditions": "GBM #9, type D (non-classified), Azathioprine 1 μM, duration 21 day", "protocol": "as §1, §2"}, "[5]": {"tested_on": "GBM #4 glioblastoma multiform patient originated cells", "test": "Neurosphere formation inhibition, GBM #4", "assay_type": "cell-based, human", "design": "key: S: strong effect; I: intermediate effect; R: rare effect", "conditions": "GBM #4, type B (classical), Azathioprine 1 μM, duration 9 day", "protocol": "as §1, §2"}, "[6]": {"tested_on": "normal human astrocytes (NHA)", "conditions": "azathioprine 10 μM, 24 hours later, before and after the treatment"}, "[7]": {"tested_on": "GBM (559T) cells", "conditions": "GBM (559T) cell lysate, azathioprine 10 μM, 24 hours later, compared with before the treatment"}, "[8]": {"tested_on": "MCF-7 Human breast adenocarcinoma", "test": "Secondary cytotoxicity test, MCF-7", "assay_type": "cell-based", "conditions": "MCF7", "protocol": "as §3, §4"}, "[9]": {"tested_on": "GBM #1 glioblastoma multiform patient originated cells", "test": "Neurosphere formation inhibition, GBM #1", "assay_type": "cell-based, human", "design": "key to inhibition of neurosphere formation: S: strong effect; I: intermediate effect; R: rare effect", "protocol": "(§5) Particularly, to investigate neurosphere formation, glioblastoma multiform cells were cultured for a certain time and the cells were distributed again in culture vessels, followed by additional culture. Then, the number of newly generated neurospheres was measured. First, the glioblastoma multiform patient originated cells were sub-cultured, which were distributed in a 96-well plate (20, 50, and 200 cells in 50 μl of culture medium/well). 2, 6, and 20 μM of the compound of formula 1 (azathioprine) and the compound of Comparative Example 1 (Temodal) were treated thereto by 50 μl per well to make the final concentrations of 1, 3, and 10 μM. Then, the compound of formula 1 (azathioprine) and the compound of Comparative Example 1 (Temodal) were added to 50 μl of cell culture medium with the same concentrations as the above once a week, which were then cultured for 7˜23 days. When neurosphere was formed at least 50 μm in the control group not treated with the compound, the number of neurospheres in each well was counted to compare the neurosphere formation before and after the treatment of the compound of formula 1 (azathioprine) and the compound of Comparative Example 1 (Temodal).\nThe glioblastoma multiform cells used in this experiment were classified into 4 types, which are type A, type B, type C, and type D, according to the gene expression pattern. Methylation of MGMT (O6-me-G methyltransferase), the DNA repair protein, was confirmed in each cell line. At that time, type A [GBM #1, #2, #3] was proneural subtype, type B [GBM #4, #5, #6, #7] was classical subtype, type C [GBM #8] was mesenchymal subtype, and type D [GBM #9, #10] was non-classified glioblastoma multiform."}, "[10]": {"tested_on": "MKN45 Human stomach adenocarcinoma", "test": "Secondary cytotoxicity test, MKN45", "assay_type": "cell-based", "conditions": "MKN-45", "protocol": "as §3, §4"}, "[11]": {"tested_on": "HepG2 Human hepatocarcinoma", "test": "Secondary cytotoxicity test, HepG2", "assay_type": "cell-based", "protocol": "as §3, §4"}, "[12]": {"tested_on": "Hela Human adenocarcinoma", "test": "Secondary cytotoxicity test, Hela", "assay_type": "cell-based", "protocol": "as §3, §4"}, "[13]": {"tested_on": "GBM #8 glioblastoma multiform patient originated cells", "test": "Neurosphere formation inhibition, GBM #8", "assay_type": "cell-based, human", "design": "key: S: strong effect; I: intermediate effect; R: rare effect", "conditions": "GBM #8, type C (mesenchymal), Azathioprine 1 μM, duration 15 day", "protocol": "as §5\nThe glioblastoma multiform cells used in this experiment were classified into 4 types, which are type A, type B, type C, and type D, according to the gene expression pattern. […]"}, "[14]": {"tested_on": "GBM #10 glioblastoma multiform patient originated cells", "test": "Neurosphere formation inhibition, GBM #10", "assay_type": "cell-based, human", "design": "key: S: strong effect; I: intermediate effect; R: rare effect", "conditions": "GBM #10, type D (non-classified), Azathioprine 1 μM, duration 10 day", "protocol": "as §1, §2"}},
  "data": [
    {"smiles": "Cn1cnc([N+](=O)[O-])c1Sc1ncnc2nc[nH]c12", "note": "[Azathioprine, 6-(1-methyl-4-nitro-1H-imidazol-5-ylthio)-7H-purine]", "values": [
      {"measurement": "inhibition of neurosphere formation", "setting": "[1]", "value": "S"},
      {"measurement": "IC50", "setting": "[2]", "value": 4900, "unit": "nM"},
      {"measurement": "inhibition of neurosphere formation", "setting": "[3]", "value": "S"},
      {"measurement": "inhibition of neurosphere formation", "setting": "[4]", "value": "S"},
      {"measurement": "inhibition of neurosphere formation", "setting": "[5]", "value": "S"},
      {"measurement": "concentrations of azathioprine metabolites (TGMP, MeTIMP, MeTGMP, TIMP) in cell lysate", "setting": "[6]", "value": "not much changed"},
      {"measurement": "concentrations of azathioprine metabolites (TGMP, MeTIMP, MeTGMP, TIMP) in cell lysate", "setting": "[7]", "value": "significantly raised"},
      {"measurement": "IC50", "setting": "[8]", "value": 2600, "unit": "nM"},
      {"measurement": "inhibition of neurosphere formation", "setting": "[9]; GBM #1, type A (proneural), Azathioprine 1 μM, duration 7 day", "value": "R"},
      {"measurement": "neurosphere formation", "setting": "[9]; GBM#1, azathioprine raised to 10 μM", "value": "significantly inhibited"},
      {"measurement": "IC50", "setting": "[10]", "value": 1200, "unit": "nM"},
      {"measurement": "IC50", "setting": "[11]", "value": "> 10000", "unit": "nM"},
      {"measurement": "IC50", "setting": "[12]", "value": 2900, "unit": "nM"},
      {"measurement": "inhibition of neurosphere formation", "setting": "[13]", "value": "S"},
      {"measurement": "inhibition of neurosphere formation", "setting": "[14]", "value": "S"}
    ]}
  ]
}
